Results on 14 compounds are retold here after patent US20230106032A1, “IMIDAZOTRIAZINES ACTING ON CANCER VIA INHIBITION OF CDK12” (Bayer Aktiengesellschaft, priority 2020, published 2023).

Experiment [1] deals with T1, CDK12 (Homo sapiens, UniProt Q9NYV4).
T1 construct: endogenous in cells; host or cells: CAL-120 human breast cancer cells (DSMZ ACC 459)
Briefly: CDK12 nuclear protein level: immunofluorescence/high content analysis in CAL-120 cells. It is filed as cell-based. The note with it: for DC50: CAL-120 cells, 24 h, nuclear CDK12 staining, read-out: CDK12 degradation IF DC50-[mol/l] (median); for (IC50 CDK12 high ATP) to (Degradation DC50 CDK12) ratio: IC50 CDK12 hATP (Table 2) divided by DC50 CDK12 IF (Table 8). The procedure: In the context of the present invention, the term “DC50 CDK12” refers to the DC50 values obtained according to the assay described in this section (6) herein below, i.e. the DC50 values for the degradation of CDK12.
CAL-120 human breast cancer cells (DSMZ ACC 459) are seeded in 1536-well microtiter plates (800 cells per well) containing 50 nanoL of compounds in Dose-Response. Control wells received DMSO or Reference Example 1. Plates are then incubated for 24 h at 37° C. in an humidified incubator and fixed with 4% PFA for 10 min. Then immunofluorescence (IF) against CDK12 (CellSignalling CDK12 Antibody #11973, rabbit, 1:100 dilution) is performed using standard IF protocols. Cells are then stained with Hoechst 33342 (Life Technologies, H-1399, 0.1 microg/ml) and imaged on an automated confocal microscopy system (e.g. Perkin Elmer Opera Phenix). Nuclear and cytoplasmic intensity as well as the nuclear/cytoplasmic intensity ratio is determined by automated image analysis using custom generated scripts (MetaXpress). Data is then transferred to Genedata Screener software, normalized to DMSO and control and DC50 values (degrading concentration to achieve 50% reduction of nuclear CDK12 staining intensity relative to controls) are reported.

Experiment [2] addresses T2, CDK9/CycT1 (Homo sapiens, UniProt P50750).
T2 construct: Recombinant full-length His-tagged human CDK9 and CycT1, expressed in insect cells; His; purchased Life Technologies PV4131; host or cells: insect cells
Briefly: CDK9/CycT1 high ATP kinase assay (TR-FRET, 2 mM ATP). It is filed as biochemical. As to conditions: read-out: CDK9/CyclinT1, 2 mM ATP (high ATP) IC50-[mol/l] (median). The procedure:
CDK9/CycT1-inhibitory activity of compounds of the present invention at a high ATP concentration after preincubation of enzyme and test compounds was quantified employing the CDK9/CycT1 TR-FRET assay as described in the following paragraphs.
Recombinant full-length His-tagged human CDK9 and CycT1, expressed in insect cells and purified by Ni-NTA affinity chromatography, were purchased from Life Technologies (Cat. No PV4131). As substrate for the kinase reaction biotinylated peptide biotin-Ttds-YISPLKSPYKISEG (C-terminus in amide form) was used which can be purchased e.g. form the company JERINI peptide technologies (Berlin, Germany).
For the assay 50 nanoL of a 100 fold concentrated solution of the test compound in DMSO was pipetted into either a black low volume 384 well microtiter plate or a black 1536 well microtiter plate (both Greiner Bio-One, Frickenhausen, Germany), 2 microL of a solution of CDK9/CycT1 in aqueous assay buffer [50 millimol/L Tris/HCl pH 8.0, 10 millimol/L MgCl2, 1.0 millimol/L dithiothreitol, 0.1 millimol/L sodium ortho-vanadate, 0.01% (v/v) Nonidet-P40 (Sigma)] were added and the mixture was incubated for 15 min at 22° C. to allow pre-binding of the test compounds to the enzyme before the start of the kinase reaction. Then the kinase reaction was started by the addition of 3 microL of a solution of adenosine-tri-phosphate (ATP, 3.3 millimol/L=> final conc. in the 5 microL assay volume is 2 millimol/L) and substrate (1.25 micromol/L=> final conc. in the 5 microL assay volume is 0.75 micromol/L) in assay buffer and the resulting mixture was incubated for a reaction time of 25 min at 22° C. The concentration of CDK9/CycT1 was adjusted depending of the activity of the enzyme lot and was chosen appropriate to have the assay in the linear range, typical concentrations were in the range of 0.5 microg/ml. The reaction was stopped by the addition of 3 microL of a solution of TR-FRET detection reagents (0.33 micromol/L streptavidine-XL665 [Cisbio Bioassays, Codolet, France] and 1.67 nanomol/L anti-RB(pSer807/pSer8l 1)-antibody from BD Pharmingen [#558389] and 2 nanomol/L LANCE EU-W1024 labeled anti-mouse IgG antibody [Perkin-Elmer, product no. AD0077]) in an aqueous EDTA-solution (167 millimol/L EDTA, 0.2% (w/v) bovine serum albumin in 100 millimol/L HEPES pH 7.5).
The resulting mixture was incubated 1 h at 22° C. to allow the formation of complex between the phosphorylated biotinylated peptide and the detection reagents. Subsequently the amount of phosphorylated substrate was evaluated by measurement of the resonance energy transfer from the Eu-chelate to the streptavidine-XL. Therefore, the fluorescence emissions at 620 nm and 665 nm after excitation at 350 nm was measured in a TR-FRET reader, e.g. a Pherastar (BMG Labtechnologies, Offenburg, Germany) or a Viewlux (Perkin-Elmer). The ratio of the emissions at 665 nm and at […] was taken as the measure for the amount of phosphorylated substrate. The data were normalised (enzyme reaction without inhibitor=0% inhibition, all other assay components but no enzyme=100% inhibition).
(In general: TR-FRET usually uses a lanthanide donor and a delayed reading to cut background.)

Structures are written as SMILES.

T1 sequence (Q9NYV4 whole entry): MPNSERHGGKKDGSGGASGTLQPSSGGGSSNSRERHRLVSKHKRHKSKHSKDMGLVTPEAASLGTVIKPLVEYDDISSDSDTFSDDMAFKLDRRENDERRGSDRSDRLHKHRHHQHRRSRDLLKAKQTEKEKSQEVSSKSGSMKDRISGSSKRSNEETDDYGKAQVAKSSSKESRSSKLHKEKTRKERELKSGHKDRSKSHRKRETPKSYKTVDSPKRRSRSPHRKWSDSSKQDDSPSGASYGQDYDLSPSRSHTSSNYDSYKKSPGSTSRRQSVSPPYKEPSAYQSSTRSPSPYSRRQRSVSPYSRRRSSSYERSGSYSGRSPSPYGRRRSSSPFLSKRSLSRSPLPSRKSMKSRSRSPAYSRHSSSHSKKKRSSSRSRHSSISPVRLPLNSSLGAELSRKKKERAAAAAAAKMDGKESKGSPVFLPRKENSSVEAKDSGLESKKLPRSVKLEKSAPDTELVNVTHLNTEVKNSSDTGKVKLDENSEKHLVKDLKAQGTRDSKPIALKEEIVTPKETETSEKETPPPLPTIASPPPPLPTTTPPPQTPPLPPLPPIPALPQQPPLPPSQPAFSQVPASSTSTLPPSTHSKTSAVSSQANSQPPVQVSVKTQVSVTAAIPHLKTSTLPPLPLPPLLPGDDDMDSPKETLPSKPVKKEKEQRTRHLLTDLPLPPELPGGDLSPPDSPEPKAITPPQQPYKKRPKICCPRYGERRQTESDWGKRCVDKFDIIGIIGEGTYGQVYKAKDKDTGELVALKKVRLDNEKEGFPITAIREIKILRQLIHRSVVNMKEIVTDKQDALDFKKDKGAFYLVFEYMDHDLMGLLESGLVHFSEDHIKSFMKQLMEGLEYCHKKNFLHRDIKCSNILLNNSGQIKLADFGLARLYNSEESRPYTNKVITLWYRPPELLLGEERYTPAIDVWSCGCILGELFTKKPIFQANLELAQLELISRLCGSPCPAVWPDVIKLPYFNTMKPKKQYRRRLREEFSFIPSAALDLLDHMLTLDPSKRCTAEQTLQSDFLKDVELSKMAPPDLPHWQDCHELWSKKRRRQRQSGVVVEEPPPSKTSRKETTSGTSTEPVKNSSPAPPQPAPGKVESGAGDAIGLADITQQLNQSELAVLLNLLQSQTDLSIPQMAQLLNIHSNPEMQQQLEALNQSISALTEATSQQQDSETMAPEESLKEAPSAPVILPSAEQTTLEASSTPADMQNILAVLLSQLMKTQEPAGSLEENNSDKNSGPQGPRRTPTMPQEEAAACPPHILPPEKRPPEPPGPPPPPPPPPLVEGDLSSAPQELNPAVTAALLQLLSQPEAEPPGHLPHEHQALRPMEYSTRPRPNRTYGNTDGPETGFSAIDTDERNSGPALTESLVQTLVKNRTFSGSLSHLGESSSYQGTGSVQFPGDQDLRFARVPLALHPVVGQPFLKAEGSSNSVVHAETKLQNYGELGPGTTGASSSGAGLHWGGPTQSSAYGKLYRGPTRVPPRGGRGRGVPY
T1 sequence (O75909 whole entry partner): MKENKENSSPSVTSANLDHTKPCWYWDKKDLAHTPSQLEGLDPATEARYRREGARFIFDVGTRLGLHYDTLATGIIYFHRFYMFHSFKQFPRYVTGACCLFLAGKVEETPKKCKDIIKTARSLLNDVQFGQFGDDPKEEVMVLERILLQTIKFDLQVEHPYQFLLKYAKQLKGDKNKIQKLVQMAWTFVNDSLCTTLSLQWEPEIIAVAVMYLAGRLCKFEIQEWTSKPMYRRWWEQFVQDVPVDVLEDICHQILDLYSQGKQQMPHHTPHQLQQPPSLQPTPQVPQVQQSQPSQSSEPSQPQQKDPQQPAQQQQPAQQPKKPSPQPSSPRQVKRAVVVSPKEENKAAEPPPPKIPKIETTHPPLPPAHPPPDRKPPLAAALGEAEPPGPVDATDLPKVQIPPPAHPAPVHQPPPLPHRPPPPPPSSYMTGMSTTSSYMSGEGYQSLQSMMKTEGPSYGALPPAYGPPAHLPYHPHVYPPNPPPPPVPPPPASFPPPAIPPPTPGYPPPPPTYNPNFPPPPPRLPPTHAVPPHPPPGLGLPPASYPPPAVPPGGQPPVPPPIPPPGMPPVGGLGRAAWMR
T2 sequence (P50750 whole entry): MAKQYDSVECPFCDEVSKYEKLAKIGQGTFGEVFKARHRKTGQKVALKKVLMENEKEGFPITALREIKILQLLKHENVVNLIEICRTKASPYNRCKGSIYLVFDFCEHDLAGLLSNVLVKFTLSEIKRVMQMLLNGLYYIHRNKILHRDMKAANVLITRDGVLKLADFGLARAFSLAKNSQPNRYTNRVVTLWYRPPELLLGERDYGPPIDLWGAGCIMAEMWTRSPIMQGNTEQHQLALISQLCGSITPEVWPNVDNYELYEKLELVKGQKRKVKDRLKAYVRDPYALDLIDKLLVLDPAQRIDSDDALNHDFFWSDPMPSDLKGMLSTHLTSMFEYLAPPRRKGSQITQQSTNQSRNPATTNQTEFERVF
T2 sequence (O60563 whole entry partner): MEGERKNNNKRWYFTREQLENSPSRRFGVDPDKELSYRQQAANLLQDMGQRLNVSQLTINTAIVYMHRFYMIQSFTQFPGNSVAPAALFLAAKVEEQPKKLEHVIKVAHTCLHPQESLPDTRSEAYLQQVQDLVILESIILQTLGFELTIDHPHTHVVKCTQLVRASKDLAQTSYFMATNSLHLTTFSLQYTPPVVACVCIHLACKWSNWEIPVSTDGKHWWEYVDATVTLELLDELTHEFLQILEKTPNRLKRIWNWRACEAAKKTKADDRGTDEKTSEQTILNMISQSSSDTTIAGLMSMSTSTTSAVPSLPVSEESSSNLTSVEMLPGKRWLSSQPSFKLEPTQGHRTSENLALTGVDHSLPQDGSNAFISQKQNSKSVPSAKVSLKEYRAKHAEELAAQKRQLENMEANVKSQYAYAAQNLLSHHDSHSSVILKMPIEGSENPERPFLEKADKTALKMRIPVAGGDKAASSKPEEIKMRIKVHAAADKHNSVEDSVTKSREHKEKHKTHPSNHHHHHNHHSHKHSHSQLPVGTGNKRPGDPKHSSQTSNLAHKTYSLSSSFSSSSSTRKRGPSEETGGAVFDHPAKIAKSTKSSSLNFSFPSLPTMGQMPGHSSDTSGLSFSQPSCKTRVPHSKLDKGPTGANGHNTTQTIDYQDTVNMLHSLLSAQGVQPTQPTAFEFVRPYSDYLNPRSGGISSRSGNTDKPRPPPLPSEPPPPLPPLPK

On to `Fc1ccc2[nH]c(CNc3nc(N4CCNCC4)nn4c(Br)cnc34)nc2c1F` [Example 10, 7-bromo-N-[(4,5-difluoro-1H-benzimidazol-2-yl)methyl]-2-(piperazin-1-yl)imidazo[2,1-f][1,2,4]triazin-4-amine], for which, in experiment [1], the DC50 is 0.132 nM and the “(IC50 CDK12 high ATP) to (Degradation DC50 CDK12) ratio” value is on record as 10329. The IC50 in experiment [2] was found to be 12400 nM.
For `COc1cccc2[nH]c(CNc3nc(N4CCOCC4)nn4c(Br)cnc34)nc12` [Example 13, 7-bromo-N-[(4-methoxy-1H-benzimidazol-2-yl)methyl]-2-(morpholin-4-yl)imidazo[2,1-f][1,2,4]triazin-4-amine] the same measures were 1.79 nM, 742 and greater than 18900 nM.
For `C[C@@H]1CN(c2nc(NCc3nc4ccccc4[nH]3)c3ncc(Br)n3n2)C[C@H](C)N1` [Example 9, N-[(1H-benzimidazol-2-yl)methyl]-7-bromo-2-[rel-(3R,5S)-3,5-dimethylpiperazin-1-yl]imidazo[2,1-f][1,2,4]triazin-4-amine] the same measures were 0.575 nM, 8519 and greater than 20000 nM.
For `Fc1cccc(-c2cnc3c(NCc4nc5ccccc5[nH]4)nc(N4CCOCC4)nn23)c1` [Example 3, N-[(1H-benzimidazol-2-yl)methyl]-7-(3-fluorophenyl)-2-(morpholin-4-yl)imidazo[2,1-f][1,2,4]triazin-4-amine] the same measures were 36 nM, greater than 556 and greater than 20000 nM.
As for `CN(CC(C)(C)O)c1nc(NCc2nc3ccccc3[nH]2)c2ncc(C(F)(F)F)n2n1` [Example 30, 1-[{4-[(1H-benzimidazol-2-ylmethyl)amino]-7-(trifluoromethyl)imidazo[2,1-f][1,2,4]triazin-2-yl}(methyl)amino]-2-methylpropan-2-ol], in experiment [1], the DC50 was determined as 13.8 nM and the “(IC50 CDK12 high ATP) to (Degradation DC50 CDK12) ratio” value is listed as 12. The IC50 in experiment [2] stood at 10800 nM.
The matching figures for `CN1CCN(c2nc(NCc3nc4cc(F)ccc4[nH]3)c3ncc(Br)n3n2)CC1` [Example 21, 7-bromo-N-[(5-fluoro-1H-benzimidazol-2-yl)methyl]-2-(4-methylpiperazin-1-yl)imidazo[2,1-f][1,2,4]triazin-4-amine]: 2.78 nM, 5916 and greater than 20000 nM.
The matching figures for `COc1cccc2[nH]c(CNc3nc(N4CCNCC4)nn4c(Br)cnc34)nc12` [Example 15, 7-bromo-N-[(4-methoxy-1H-benzimidazol-2-yl)methyl]-2-(piperazin-1-yl)imidazo[2,1-f][1,2,4]triazin-4-amine]: 1.16 nM, 1790 and greater than 20000 nM.
The matching figures for `C[C@@H]1CN(c2nc(NCc3nc4ccccc4[nH]3)c3ncc(Br)n3n2)C[C@H](C)O1` [Example 4, N-[(1H-benzimidazol-2-yl)methyl]-7-bromo-2-[rel-(2R,6S)-2,6-dimethylmorpholin-4-yl]imidazo[2,1-f][1,2,4]triazin-4-amine]: 13 nM, 76 and 17700 nM.
For the compound `CN1CCN(c2nc(NCc3nc4c(F)cccc4[nH]3)c3ncc(Br)n3n2)CC1` [Example 23, 7-bromo-N-[(4-fluoro-1H-benzimidazol-2-yl)methyl]-2-(4-methylpiperazin-1-yl)imidazo[2,1-f][1,2,4]triazin-4-amine], in experiment [1], the DC50 worked out at 4.04 nM and the “(IC50 CDK12 high ATP) to (Degradation DC50 CDK12) ratio” value turned out to be 2680. Also, the IC50 in experiment [2] was greater than 20000 nM.
For `Brc1cnc2c(NCc3nc4ccccc4[nH]3)nc(N3CCOCC3)nn12` [Example 1, N-[(1H-benzimidazol-2-yl)methyl]-7-bromo-2-(morpholin-4-yl)imidazo[2,1-f][1,2,4]triazin-4-amine] the same measures were 6.8 nM, 751 and greater than 20000 nM.
The matching figures for `C[C@@H]1CN(c2nc(NCc3nc4c(F)c(F)ccc4[nH]3)c3ncc(C(F)(F)F)n3n2)C[C@H](C)N1` [Example 29, N-[(4,5-difluoro-1H-benzimidazol-2-yl)methyl]-2-[rel-(3R,5S)-3,5-dimethylpiperazin-1-yl]-7-(trifluoromethyl)imidazo[2,1-f][1,2,4]triazin-4-amine]: 0.229 nM, 177 and 4620 nM.
For `CN1CCN(c2nc(NCc3nc4c(F)c(F)ccc4[nH]3)c3ncc(C(F)(F)F)n3n2)CC1` [Example 28, N-[(4,5-difluoro-1H-benzimidazol-2-yl)methyl]-2-(4-methylpiperazin-1-yl)-7-(trifluoromethyl)imidazo[2,1-f][1,2,4]triazin-4-amine] the same measures were 0.58 nM, 2887 and greater than 20000 nM.
`FC(F)(F)c1cnc2c(NCc3nc4ccccc4[nH]3)nc(N3CCOCC3)nn12` [Example 26, N-[(1H-benzimidazol-2-yl)methyl]-2-(morpholin-4-yl)-7-(trifluoromethyl)imidazo[2,1-f][1,2,4]triazin-4-amine]: in experiment [1], the DC50 is 4.79 nM and the “(IC50 CDK12 high ATP) to (Degradation DC50 CDK12) ratio” value came to 36. Moreover, the IC50 in experiment [2] is greater than 20000 nM.
For `C[C@@H]1CN(c2nc(NCc3nc4ccccc4[nH]3)c3ncc(C(F)(F)F)n3n2)C[C@H](C)N1.O=CO` [Example 24, N-[(1H-benzimidazol-2-yl)methyl]-2-[rel-(3R,5S)-3,5-dimethylpiperazin-1-yl]-7-(trifluoromethyl)imidazo[2,1-f][1,2,4]triazin-4-amine Formate (1/1)] the same measures were 0.274 nM, 2691 and greater than 20000 nM.
